How the values were obtained:
Type in all cases: in vivo, mouse
[1] = system: hippocampal neurons; experiment: Kainate-induced neuronal damage in the hippocampus (Nissl's stain, GFAP, TUNEL, toluidine stain); conditions: KA 45 mg/kg, JNK2(−/−) mice as printed
[2] = system: AP-1 transcriptional activity; experiment: KA-induced AP-1 transcriptional activity (luciferase assay, AP1-luc mice); conditions: KA 30 mg/kg i.p.
Description: Since the phosphorylation of c-Jun is an important initial event during the induction of AP-1 transcriptional activity (Whitemarsh et al., supra; Yang et al., supra), whether the observed attenuation of c-Jun phosphorylation would lead to decreased induction of AP-1 transcriptional activity in JNK3 (−/−) mice was examined. JNK(-1-) mice were crossed with transgenic AP-1 luciferase (AP1-luc) mice (Rincon et al., Embo. J. 13:4370-4381, 1994) and progeny back crossed. The JNK3(−/−)/API-Luc(−/+) mice were used in experiments with JNK3(+/+) mice to compare the level of KA-induced AP-1 transcriptional activity in the presence or absence of JNK3. The AP1-luc mice contain the firefly luciferase gene under the control of four copies of a consensus AP-1 binding site in the context of the minimal rat prolactin promoter. It has been established that the expression of luciferase in these mice is due to the presence of the AP-1 regulatory element.
In the luciferase assay, mice were sacrificed at intervals after injection of KA (30 mg/kg, i.p.), and relative luciferase activity compared with that detected in hippocampal lysates obtained from mice injected with vehicle (saline). Mice were decapitated, brains were dissected, and brain tissues were immediately lysed in buffer containing 25 mM Hepes pH 7.4, 1% TRITON®X-100, 1 mM EDTA, 1 mM phenylmethyl sulfonyl fluoride, and 10 μg/ml leupeptin (Promega, Madison, Wis.). Luciferase activity was measured as described in Rincon and Flavell (Embo. J. 13:4370-4381, 1994). The injection of KA (30 mg/kg, i.p.) caused a large induction of AP-1 transcriptional activity in the hippocampus of wild-type mice, as evidenced by the induction of luciferase activity.
The relative luciferase activity in the hippocampus and cerebellum prepared from wild-type (+/+) and JNK3 (−/−) mice was measured following KA injection. Each time point represents the mean of three to five (+SEM) individual animals. […]

[3] = system: mice; experiment: KA-induced seizures in wild-type and JNK3(−/−) mice
Protocol: JNK3(−/−) mice and their wild-type littermates were injected intraperitoneally (i.p.) with 30 mg/kg KA to induce seizures (Ben-Ari, supra). In wild-type mice, the administration of KA first induced “staring spells” with abnormal body posture, then progressed to head nodding (“wet-dog shakes”), fore-paw tremor, rearing, loss of postural control, and eventually, continuous convulsions. […] Wild-type and heterozygous mice developed motor symptoms of seizures, including rearing, at 30 to 40 minutes post-injection. The JNK3 (−/−) mice, in contrast, developed much milder symptoms, mainly consisting of “staring” spells and occasional myoclonic tremors. […] Further, JNK3(−/−) mice recovered from the drug administration more rapidly than wild-type mice (FIG. 7). Seizure classifications as shown in FIGS. 7 and 8 are: 1, arrest of motion; 2, myoclonic jerks of the head and neck, with brief twitching movements; 3, unilateral clonic activity; 4, bilateral forelimb tonic and clonic activity; and 5, generalized tonic-clonic activity with loss of postural tone, often resulting in death.

[4] = system: hippocampal neurons; experiment: Kainate-induced neuronal damage in the hippocampus (Nissl's stain, GFAP, TUNEL, toluidine stain)
Protocol: These experiments were performed as follows. Wild-type and JNK3 (−/−) mice were killed and fixed by transcardial perfusion of 4% paraformaldehyde and 1.5% glutaraldehyde three days after the injection of KA (30 mg/kg, i.p.). Semithin and thin sections of brain were prepared using a Vibratome and embedded in Epon. Tissue blocks were prepared using a microtome with a diamond tube for 1 μm-thick semithin sections examined by toluidine blue staining, and for ultrathin sections examined by electron microscopy. Nissl's stain was used for initial examination of damage to the hippocampus (Kluver et al., J. Neuropath. Exp. Neuro. 12:400-403, 1953). GFAP immunocytochemistry was also used to assess cell destruction in the hippocampus (Hsu et al., supra). Nissl's staining was also performed as described above. TUNEL assays, used to evaluate apoptosis, were performed using cryostat sections (50 μm) of cerebral hemispheres that were cryoprotected with sucrose. The TUNEL assay was modified from the terminal deoxynucleotidyl transferase (TdT)-mediated dUTP nick end labeling assay (Gavrieli et al., J. Cell. Biol. 119:493-501, 1992). Briefly, tissue sections, directly mounted on a salinated slide, were permeablized with 2% TRITON® X-100 (20 minutes at room temperature) and then incubated for nick end-labeling for 2 hours at 37° C. using 0.32 U/μl TdT (Boehringer Mannheim, cat# 220582) and 2 μM digoxigenin-11-dUTP (Boehringer Mannheim, cat# 1573152) in a final volume of 40 μl. The tissues were incubated with anti-digoxigenin antibody (Boehringer Mannheim, cat# 1333062) diluted 500-fold, and processed for immunocytochemistry using standard procedures (Hsu et al., supra).
The damage to the hippocampus caused by KA was initially examined by Nissl's stain. The KA-induced cell loss caused either a breach of staining of the pyramidal neurons in the CA3 region or a diffuse sparse staining throughout the CA1 subfield. […] Groups of small pyknotic nuclei and positively TUNEL-labeled cells were found in the hippocampal CA3 subfield devoid of Nissl's staining. […] Since the TUNEL method and the pyknosis morphology only indicated the extent of cell damage at one time point of a dynamic process, immunostaining of damage-induced GFAP was also used as an independent assessment of the extent of cell destruction in the hippocampus. Consistent with the patterns of Nissl's, toluidine, and TUNEL staining, an increased number of strongly GFAP-labeled astrocytes was found either in the hippocampal CA3 or CAl regions. Thus, a combination of Nissl's stain, GFAP immunocytochemistry, TUNEL method, and toluidine stain of semithin sections was used to classify the KA-induced damage in the mouse hippocampus.
A total of 17 wild-type and 18 JNK3(−/−) mice were examined. The table was compiled from two sets of data. First, wild-type (n=11) and JNK3 (−/−) (n=10) mice were sacrificed on the fifth day after a single injection of KA (30 mg/kg, i.p.). Second, wild-type (n=6) and JNK3 (−/−) (n=8) mice received an injection of KA (30 mg/kg, i. p.) for five consecutive days and examined two days following the final injection. […] The ratio of no cell loss/CA3 lesion/CA3+CA1 lesion was 2/7/2 in the single-injection experiments, and 2/2/2 in the multiple injection experiments.

[5] = system: c-Jun phosphorylated at Ser-73; experiment: KA-induced phosphorylation of c-Jun in hippocampus (immunocytochemistry); conditions: KA 30 mg/kg i.p., two hours after injection
Protocol: To further define this phenomenon, the distribution of KA-induced c-Fos and c-Jun immunoreactivity along the synaptic circuit of the hippocampus was examined. In these experiments, homozygous mutant and control wild-type mice were killed and fixed by transcardial perfusion of 4% paraformaldehyde at 2 or 6 hours after the injection of KA (30 mg/kg, i.p.). Brains from both groups were removed, post-fixed for one hour, and sectioned on a Vibratome ([…]). Tissue sections were processed by immunocytochemistry to detect the expression of c-June (Santa Cruz, cat# sc-45), c-Fos (Santa Cruz, cat# sc-52), and phospho-specific c-Jun (Ser-73) (New England Biolabs, #9164S). Sections were floated in a solution of the primary antibody (diluted 200× in PBS) and incubated overnight at room temperature. Secondary antibody incubation, avidin-biotin conjugated peroxidase (Vectastain Elite ABC kit, Vector Lab.), and DAB (3, 3′-diaminobenzidine, Sigma) reactions were performed using standard procedures (Hsu et al., supra). In the absence of KA, there was no detectable c-Fos expression and only a few c-Jun-positive cells within the dentate gyrus. […]
In addition, there was a dynamic change of the distribution of phosphorylated c-Jun in the wild type mouse hippocampus. […] In contrast, no labeling of phosphorylated c-Jun was detected in the JNK3(−/−) mice at the same time point. […]

[6] = system: mice; experiment: Pentetrazole (PTZ)-induced seizures in wild-type and JNK3(−/−) mice
Description: Since the resistance to KA-induced seizures varied between littermates (+/+ and +/− are less resistant than −/− mice), the observed differential susceptibility cannot be attributed to a difference between mouse strains (Schauwecker and Steward, Proc. Nat. Acad. Sci. USA 94:4103-4108, 1997). However, the resistance of JNK3 deficient mice to KA-induced seizures could be due to decreased drug penetration across the blood-brain barrier or an increased GABA (gamma-aminobutyric acid) inhibitory postsynaptic potential (IPSP), or the ablation of a specific signal transduction pathway mediated by the JNK3 protein kinase. To distinguish between these possibilities, the response of JNK3 (−/−) and wild-type mice to another epileptogenic agent, pentetrazole (PTZ) (Sigma), was examined. PTZ was selected due to its ability to induce seizures by blocking the GABA-IPSPs (Ben-Ari et al., Neurosci. 6:1361-1391, 1981).
Thus, the differential susceptibility to KA toxicity in JNK3(−/−) mice can neither be explained as a consequence of poor drug delivery to the nervous system nor by potent GABA-IPSPs in the neural circuit. Furthermore, we examined the expression of the kainate-type glutamate receptor subunits GluR5-7 (Pharmingen cat. No. 60006E) by immunocytochemistry using standard methods.

[7] = KA 30 mg/kg i.p., wild-type mice
[8] = KA 30 mg/kg i.p., JNK3 genotype +/+
[9] = KA 30 mg/kg i.p., JNK3 genotype −/−

C=C(C)[C@H]1CN[C@H](C(=O)O)[C@H]1CC(=O)O [KA, kainic acid]
animals with cell damage (fraction) [1]: 2/15
animals with cell damage ([1]; p<0.005): 13%
AP-1 activity in hippocampus, wild-type compared with JNK3(−/−) mice ([2]; 15 hours after injection): approximately four-fold greater
AP-1 activity in hippocampus, wild-type compared with JNK3(−/−) mice ([2]; three days after injection): more than six times higher
time of peak luciferase activity in hippocampus ([2]; wild-type AP1-luc mice): three days
seizure severity ([3]; KA 30 mg/kg i.p., JNK3(−/−) mice): did not develop grand mal seizures
time at which seizure activities subsided [3, 7]: one hour after injection
survival ([3]; KA 45 mg/kg i.p., JNK3(−/−) mice): all of the JNK3(−/−) mice survived
mice that died from continuous tonic clonic convulsions ([3]; KA 45 mg/kg i.p., wild-type mice): more than 60%
hippocampal damage ([4]; KA 30 mg/kg i.p., JNK3(−/−) mice (n=18)): no apparent hippocampal damage
Including CA1 cell loss [4, 8]: 4 number of animals
No perceivable cell loss [4, 8]: 4 number of animals
Selective CA3 cell loss [4, 8]: 9 number of animals
Including CA1 cell loss [4, 9]: 0 number of animals
No perceivable cell loss [4, 9]: 18 number of animals
Selective CA3 cell loss [4, 9]: 0 number of animals
animals with damage of the hippocampal CA3 region [4, 7]: 53%
animals with damage of the hippocampal CA3 region (fraction) [4, 7]: 9/17
animals with massive cell loss throughout the entire hippocampal CA1 region [4, 7]: 24%
animals with massive cell loss throughout the entire hippocampal CA1 region (fraction) [4, 7]: 4/17
ratio of no cell loss/CA3 lesion/CA3+CA1 lesion ([4]; wild-type mice, KA 30 mg/kg i.p. for five consecutive days, examined two days after final injection): 2/2/2
ratio of no cell loss/CA3 lesion/CA3+CA1 lesion ([4]; wild-type mice, single injection of KA 30 mg/kg i.p., sacrificed on the fifth day): 2/7/2
phosphorylated c-Jun in hippocampus ([5]; JNK3(−/−) mice): only a trace amount
phosphorylated c-Jun in the dentate gyrus and CA3/CA4 region of the hippocampus ([5]; wild-type mice): high level of phosphorylated c-Jun

C1CCc2nnnn2CC1 [PTZ, pentetrazole]
seizure severity, JNK3(−/−) mice versus wild-type littermates ([6]; PTZ 30, 40, 50, 60 mg/kg i.p.): comparable severity
time to abrupt general tonic-clonic seizures after injection ([6]; PTZ i.p.): within five minutes

Reference: patent US6943000B2, “JNK3 modulators and methods of use” (priority 1997, dated 2005)
